Assay results: patent US9416115B2, “Fused heterocyclic compounds as ion channel modulators” (Gilead Sciences, Inc., priority 2013, dated 2016)
Like-named read-outs stand apart in the source and are kept apart here.

Experiments:
[1] = target: T1, hNaV1.2 (SCN2A) (Homo sapiens, UniProt Q99250); assay: Use-dependent inhibition of the CNS Nav1.2 sodium channel; assay type: cell-based; conditions: use-dependent block, 25 Hz, pulse 20, read-out: Nav1.2 UDB 25 Hz 10 uM
T1 construct: expressed in transfected cells
T1 sequence (Q99250 whole entry): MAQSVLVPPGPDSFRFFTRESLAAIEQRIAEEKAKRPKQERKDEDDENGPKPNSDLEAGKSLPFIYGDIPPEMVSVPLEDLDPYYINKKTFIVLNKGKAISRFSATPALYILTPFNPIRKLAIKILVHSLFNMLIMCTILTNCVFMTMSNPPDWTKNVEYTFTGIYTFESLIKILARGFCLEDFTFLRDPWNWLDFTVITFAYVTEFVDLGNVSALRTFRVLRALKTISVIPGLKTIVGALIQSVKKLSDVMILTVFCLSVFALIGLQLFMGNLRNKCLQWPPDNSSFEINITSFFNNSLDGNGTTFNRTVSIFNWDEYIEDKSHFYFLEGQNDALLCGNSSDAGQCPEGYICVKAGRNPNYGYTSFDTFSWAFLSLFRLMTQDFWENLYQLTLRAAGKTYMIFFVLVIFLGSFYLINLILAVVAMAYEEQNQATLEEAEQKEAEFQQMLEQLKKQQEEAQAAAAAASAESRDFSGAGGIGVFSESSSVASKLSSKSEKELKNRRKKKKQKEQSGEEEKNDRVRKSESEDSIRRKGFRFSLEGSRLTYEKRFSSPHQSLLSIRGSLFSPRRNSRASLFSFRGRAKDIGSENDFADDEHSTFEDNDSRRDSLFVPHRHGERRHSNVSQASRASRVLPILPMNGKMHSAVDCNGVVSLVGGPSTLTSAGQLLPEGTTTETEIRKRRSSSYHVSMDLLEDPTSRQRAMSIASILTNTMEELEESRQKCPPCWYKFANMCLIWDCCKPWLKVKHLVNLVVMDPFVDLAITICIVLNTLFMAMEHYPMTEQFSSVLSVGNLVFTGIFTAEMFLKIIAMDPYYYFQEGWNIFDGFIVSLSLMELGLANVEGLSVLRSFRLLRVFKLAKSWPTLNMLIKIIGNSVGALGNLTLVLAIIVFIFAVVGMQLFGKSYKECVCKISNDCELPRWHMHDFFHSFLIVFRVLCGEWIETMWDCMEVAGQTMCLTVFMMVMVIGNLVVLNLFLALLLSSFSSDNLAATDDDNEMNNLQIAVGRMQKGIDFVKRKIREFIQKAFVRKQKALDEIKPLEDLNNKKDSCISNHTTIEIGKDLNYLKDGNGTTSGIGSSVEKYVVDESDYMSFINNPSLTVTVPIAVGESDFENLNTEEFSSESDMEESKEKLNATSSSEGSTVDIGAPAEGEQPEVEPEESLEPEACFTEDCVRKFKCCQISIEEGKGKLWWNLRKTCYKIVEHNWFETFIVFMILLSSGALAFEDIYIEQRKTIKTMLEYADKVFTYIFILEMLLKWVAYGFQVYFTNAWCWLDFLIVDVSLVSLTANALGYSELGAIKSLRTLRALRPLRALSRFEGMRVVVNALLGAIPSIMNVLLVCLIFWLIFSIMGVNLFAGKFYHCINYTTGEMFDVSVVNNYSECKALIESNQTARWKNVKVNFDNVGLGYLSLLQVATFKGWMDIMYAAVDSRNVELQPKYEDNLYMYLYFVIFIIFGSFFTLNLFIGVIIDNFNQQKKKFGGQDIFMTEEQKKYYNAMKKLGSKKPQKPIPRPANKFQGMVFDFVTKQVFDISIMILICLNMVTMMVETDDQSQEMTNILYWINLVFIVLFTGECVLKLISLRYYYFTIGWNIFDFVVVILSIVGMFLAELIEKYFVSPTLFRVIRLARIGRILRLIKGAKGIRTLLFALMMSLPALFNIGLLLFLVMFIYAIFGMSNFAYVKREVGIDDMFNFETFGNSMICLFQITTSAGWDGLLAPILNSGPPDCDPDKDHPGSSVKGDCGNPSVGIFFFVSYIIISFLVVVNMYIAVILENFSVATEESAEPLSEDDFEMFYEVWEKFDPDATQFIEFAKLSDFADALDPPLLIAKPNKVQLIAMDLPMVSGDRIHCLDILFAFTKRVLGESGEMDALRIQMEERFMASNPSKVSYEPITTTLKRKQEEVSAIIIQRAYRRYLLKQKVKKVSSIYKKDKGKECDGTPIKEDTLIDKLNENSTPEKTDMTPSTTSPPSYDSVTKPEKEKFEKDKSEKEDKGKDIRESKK
T1 sequence (Q07699 19-218 partner): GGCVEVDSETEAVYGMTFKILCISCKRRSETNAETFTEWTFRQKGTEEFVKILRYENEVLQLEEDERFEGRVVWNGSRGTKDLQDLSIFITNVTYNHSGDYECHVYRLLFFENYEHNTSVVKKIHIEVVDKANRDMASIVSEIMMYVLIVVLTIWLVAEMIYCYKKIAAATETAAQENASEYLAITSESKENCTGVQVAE
T1 sequence (O60939 30-215 partner): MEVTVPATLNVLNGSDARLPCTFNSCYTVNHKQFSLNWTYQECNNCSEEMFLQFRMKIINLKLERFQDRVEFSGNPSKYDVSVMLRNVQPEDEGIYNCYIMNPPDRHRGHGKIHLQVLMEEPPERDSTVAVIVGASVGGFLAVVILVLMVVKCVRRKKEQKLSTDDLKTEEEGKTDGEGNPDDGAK
Method in brief: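 Use-dependent block of human Nav1.2 was measured by automated whole-cell patch clamp (QPatch) in HEK-293 cells stably expressing hNaV1.2 with SCN1B and SCN2B. From a holding potential of −120 mV, a train of 20 pulses to 0 mV (20 ms, 25 Hz) was applied. Peak current at pulse 20 was normalized to the first pulse, and percent inhibition was calculated relative to compound-free recordings.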

[2] = target: wild-type human cardiac sodium channel, hNav1.5 (Homo sapiens, UniProt Q14524); assay: Peak INa screening assay (tonic block and use-dependent block); assay type: cell-based
Sequence of wild-type human cardiac sodium channel, hNav1.5 (Q14524 whole entry): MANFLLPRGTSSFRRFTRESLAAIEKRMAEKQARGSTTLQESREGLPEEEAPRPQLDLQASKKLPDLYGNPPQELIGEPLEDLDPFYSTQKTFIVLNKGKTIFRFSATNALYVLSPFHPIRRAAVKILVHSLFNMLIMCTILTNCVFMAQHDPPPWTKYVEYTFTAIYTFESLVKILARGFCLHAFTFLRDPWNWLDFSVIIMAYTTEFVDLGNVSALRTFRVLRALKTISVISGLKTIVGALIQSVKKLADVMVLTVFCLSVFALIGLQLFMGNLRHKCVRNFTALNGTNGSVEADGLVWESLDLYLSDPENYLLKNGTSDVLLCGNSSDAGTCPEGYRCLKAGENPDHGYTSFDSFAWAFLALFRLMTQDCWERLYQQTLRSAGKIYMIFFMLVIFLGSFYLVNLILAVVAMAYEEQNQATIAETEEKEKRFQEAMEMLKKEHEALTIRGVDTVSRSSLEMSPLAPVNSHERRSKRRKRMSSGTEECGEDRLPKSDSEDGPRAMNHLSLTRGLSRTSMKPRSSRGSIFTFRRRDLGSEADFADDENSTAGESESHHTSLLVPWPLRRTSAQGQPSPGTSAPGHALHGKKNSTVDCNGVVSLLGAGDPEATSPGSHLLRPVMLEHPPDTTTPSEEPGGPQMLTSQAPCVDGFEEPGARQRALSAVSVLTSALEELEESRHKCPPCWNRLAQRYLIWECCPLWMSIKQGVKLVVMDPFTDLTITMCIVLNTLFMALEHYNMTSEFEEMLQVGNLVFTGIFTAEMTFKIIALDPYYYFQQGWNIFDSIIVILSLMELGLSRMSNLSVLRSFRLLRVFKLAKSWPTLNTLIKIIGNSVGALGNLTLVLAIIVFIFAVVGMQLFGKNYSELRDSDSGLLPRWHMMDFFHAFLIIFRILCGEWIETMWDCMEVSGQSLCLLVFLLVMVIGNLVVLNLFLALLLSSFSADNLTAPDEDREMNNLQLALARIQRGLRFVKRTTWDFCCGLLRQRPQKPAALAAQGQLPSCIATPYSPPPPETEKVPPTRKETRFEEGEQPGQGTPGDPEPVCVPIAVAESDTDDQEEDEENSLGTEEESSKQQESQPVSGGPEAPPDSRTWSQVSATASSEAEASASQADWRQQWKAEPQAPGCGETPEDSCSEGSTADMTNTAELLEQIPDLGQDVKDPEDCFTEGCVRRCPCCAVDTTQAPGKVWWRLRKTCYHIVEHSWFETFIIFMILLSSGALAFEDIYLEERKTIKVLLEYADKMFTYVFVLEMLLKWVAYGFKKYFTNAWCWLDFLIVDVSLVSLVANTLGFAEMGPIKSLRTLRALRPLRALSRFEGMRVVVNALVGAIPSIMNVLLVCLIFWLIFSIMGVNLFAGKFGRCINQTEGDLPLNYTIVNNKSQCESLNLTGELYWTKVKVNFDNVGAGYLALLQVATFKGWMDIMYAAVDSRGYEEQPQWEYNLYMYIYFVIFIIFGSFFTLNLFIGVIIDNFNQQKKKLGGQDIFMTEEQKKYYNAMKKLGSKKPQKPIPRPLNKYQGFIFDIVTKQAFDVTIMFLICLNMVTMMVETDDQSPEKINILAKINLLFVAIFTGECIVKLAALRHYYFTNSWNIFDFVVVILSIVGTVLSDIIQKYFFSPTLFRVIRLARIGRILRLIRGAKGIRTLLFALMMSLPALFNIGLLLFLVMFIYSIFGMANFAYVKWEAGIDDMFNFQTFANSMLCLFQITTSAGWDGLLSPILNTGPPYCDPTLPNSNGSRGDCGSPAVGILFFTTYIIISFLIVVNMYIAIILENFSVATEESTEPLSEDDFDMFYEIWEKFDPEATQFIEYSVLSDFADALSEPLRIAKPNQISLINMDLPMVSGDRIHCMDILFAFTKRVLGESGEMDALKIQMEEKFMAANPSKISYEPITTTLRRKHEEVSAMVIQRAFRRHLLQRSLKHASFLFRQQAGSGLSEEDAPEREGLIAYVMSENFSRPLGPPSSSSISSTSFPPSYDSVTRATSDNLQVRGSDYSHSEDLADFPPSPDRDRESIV
Method in brief: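 HEK293 cells stably expressing hNav1.5 (no beta subunits), automated whole-cell patch clamp at 23-25° C, 40 mM Na+ bath (choline substitution), pH 7.35. Compound at 1 or 3 μM, added twice then 200 s equilibration; tonic block by steps to −20 mV from −100 mV at 0.1 Hz, use-dependent block at pulse 50 of a 3 Hz train, rundown-corrected versus compound-free.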

[3] = tonic block of Peak INa, 0.1 Hz, holding -100 mV, read-out: Peak TB 3 uM
[4] = use-dependent block of Peak INa, 3 Hz, pulse 50, read-out: Peak UDB 3 Hz 3 uM

SMILES: Cc1cc(-c2cc(C)c3onc(OCc4ncccn4)c3c2)ccc1OC(F)(F)F [Example 18, 7-methyl-5-(3-methyl-4-(trifluoromethoxy)phenyl)-3-(pyrimidin-2-ylmethoxy)benzo[d]isoxazole]
- inhibition at 10 µM [1]: < 5%
- inhibition at 3 µM [2, 3]: 27.7%
- inhibition at 3 µM [2, 4]: 5.2%

SMILES: FC(F)(F)COc1ccc(-c2ccc3onc(OCc4ncccn4)c3c2)cn1 [Example 21, 3-(pyrimidin-2-ylmethoxy)-5-(6-(2,2,2-trifluoroethoxy)pyridin-3-yl)benzo[d]isoxazole]
- inhibition at 10 µM [1]: < 5%
- inhibition at 3 µM [2, 3]: 13%
- inhibition at 3 µM [2, 4]: < 5%

SMILES: CC(C)n1ccnc1COc1noc2ccc(-c3ccc(OC(F)(F)F)cc3)cc12 [Example 48, 3-((1-isopropyl-1H-imidazol-2-yl)methoxy)-5-(4-(trifluoromethoxy)phenyl)benzo[d]isoxazole]
- inhibition at 10 µM [1]: 54.2%
- inhibition at 3 µM [2, 3]: 9.1%
- inhibition at 3 µM [2, 4]: 5.7%

SMILES: COc1cc(-c2ccc(C(F)(F)F)cc2F)cc2c(OCc3ncccn3)noc12 [Example 24, 5-(2-fluoro-4-(trifluoromethyl)phenyl)-7-methoxy-3-(pyrimidin-2-ylmethoxy)benzo[d]isoxazole]
- inhibition at 10 µM [1]: < 5%
- inhibition at 3 µM [2, 3]: 10%
- inhibition at 3 µM [2, 4]: < 5%

SMILES: OCC1(COc2noc3ccc(-c4ccc(OC(F)(F)F)cc4)cc23)COC1 [Example 97, (3-(((5-(4-(trifluoromethoxy)phenyl)benzo[d]isoxazol-3-yl)oxy)methyl)oxetan-3-yl)methanol]
- inhibition at 10 µM [1]: 34.3%
- inhibition at 3 µM [2, 3]: 26.5%
- inhibition at 3 µM [2, 4]: < 5%

SMILES: Cc1cc(-c2cc3c(OCc4ncccn4)noc3cc2C)ccc1OC(F)(F)F [Example 27, 6-methyl-5-(3-methyl-4-(trifluoromethoxy)phenyl)-3-(pyrimidin-2-ylmethoxy)benzo[d]isoxazole]
- inhibition at 10 µM [1]: < 5%
- inhibition at 3 µM [2, 3]: 20.8%
- inhibition at 3 µM [2, 4]: < 5%

SMILES: Fc1cc2onc(OCc3ncccn3)c2cc1-c1ccc(OC(F)(F)F)cc1 [Example 31, 6-fluoro-3-(pyrimidin-2-ylmethoxy)-5-(4-(trifluoromethoxy)phenyl)benzo[d]isoxazole]
- inhibition at 10 µM [1]: < 5%
- inhibition at 3 µM [2, 3]: 18.5%
- inhibition at 3 µM [2, 4]: < 5%

SMILES: Cc1cc(-c2ccc(OC(F)(F)F)cc2)cc2c(OCc3ncco3)noc12 [Example 91, 7-methyl-3-(oxazol-2-ylmethoxy)-5-(4-(trifluoromethoxy)phenyl)benzo[d]isoxazole]
- inhibition at 10 µM [1]: 46.9%
- inhibition at 3 µM [2, 3]: 33%
- inhibition at 3 µM [2, 4]: < 5%

SMILES: COc1cc(-c2ccc(OC(F)(F)F)cc2C)cc2c(OCc3ncccn3)noc12 [Example 25, 7-methoxy-5-(2-methyl-4-(trifluoromethoxy)phenyl)-3-(pyrimidin-2-ylmethoxy)benzo[d]isoxazole]
- inhibition at 10 µM [1]: < 5%
- inhibition at 3 µM [2, 3]: 12%
- inhibition at 3 µM [2, 4]: < 5%

SMILES: FC(F)(F)Oc1ccc(-c2ccc3onc(OCCN4CCOCC4)c3c2)cc1 [Example 78, 3-(2-morpholinoethoxy)-5-(4-(trifluoromethoxy)phenyl)benzo[d]isoxazole]
- inhibition at 10 µM [1]: 32.8%
- inhibition at 3 µM [2, 3]: 38.7%
- inhibition at 3 µM [2, 4]: 19.5%

SMILES: FC(F)(F)Oc1ccc(-c2ccc3onc(OCc4cn5ccccc5n4)c3c2)cc1 [Example 51, 3-(imidazo[1,2-a]pyridin-2-ylmethoxy)-5-(4-(trifluoromethoxy)phenyl)benzo[d]isoxazole]
- inhibition at 10 µM [1]: 15.7%
- inhibition at 3 µM [2, 3]: 12.3%
- inhibition at 3 µM [2, 4]: 7.7%
